Source: patent US12162888B2, “Carboxamides as ubiquitin-specific protease inhibitors” (Valo Early Discovery, Inc., priority 2018, dated 2024)
Read-outs that look alike come from different tables or passages of the source.

Biological target: T1, USP28 (His-tagged USP28-FL-mammalian) (Homo sapiens, UniProt Q96RU2)
T1 construct: Expression of USP28 (1-1077)-TEV-6*His (pTT5 vector) was carried out in Expi293f cells; made in house; host or cells: Expi293F cells (pTT5 vector)
T1 sequence (Q96RU2 1-1077): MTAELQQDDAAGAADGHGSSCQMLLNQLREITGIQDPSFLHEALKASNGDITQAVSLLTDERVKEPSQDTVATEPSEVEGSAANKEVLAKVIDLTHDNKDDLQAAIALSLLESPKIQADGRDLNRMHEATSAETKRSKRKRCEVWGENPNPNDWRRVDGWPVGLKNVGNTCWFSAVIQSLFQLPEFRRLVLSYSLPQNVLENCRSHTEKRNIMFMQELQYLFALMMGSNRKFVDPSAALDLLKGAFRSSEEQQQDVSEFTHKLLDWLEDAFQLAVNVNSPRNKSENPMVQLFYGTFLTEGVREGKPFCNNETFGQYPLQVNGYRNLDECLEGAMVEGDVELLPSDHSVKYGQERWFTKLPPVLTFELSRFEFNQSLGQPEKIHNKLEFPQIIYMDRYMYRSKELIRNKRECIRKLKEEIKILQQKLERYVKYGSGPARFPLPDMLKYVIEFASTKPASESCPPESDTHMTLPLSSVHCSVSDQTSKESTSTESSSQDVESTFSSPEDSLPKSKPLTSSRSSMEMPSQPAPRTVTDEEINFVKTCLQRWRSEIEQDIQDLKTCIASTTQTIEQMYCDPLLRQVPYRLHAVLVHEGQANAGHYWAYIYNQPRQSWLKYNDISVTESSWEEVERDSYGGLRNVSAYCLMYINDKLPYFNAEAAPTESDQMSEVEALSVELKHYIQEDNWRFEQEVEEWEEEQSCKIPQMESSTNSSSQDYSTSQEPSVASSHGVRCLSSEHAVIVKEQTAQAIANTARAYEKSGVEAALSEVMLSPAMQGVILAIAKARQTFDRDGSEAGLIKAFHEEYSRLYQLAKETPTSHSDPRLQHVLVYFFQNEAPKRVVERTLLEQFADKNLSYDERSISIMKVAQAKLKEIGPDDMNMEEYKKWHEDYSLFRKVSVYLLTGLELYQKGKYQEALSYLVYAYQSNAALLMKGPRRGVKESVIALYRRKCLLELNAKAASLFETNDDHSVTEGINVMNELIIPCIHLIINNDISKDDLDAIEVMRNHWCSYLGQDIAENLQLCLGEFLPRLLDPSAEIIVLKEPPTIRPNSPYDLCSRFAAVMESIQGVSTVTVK
Assay: Ubiquitin-Rhodamine 110 Assay for USP28 Activity, Example A-1(a)
Assay type: biochemical
Settings: Ubiquitin-Rhodamine 110 assay
In short: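 IC50s were fitted with a 4-parameter logistic to percent inhibition relative to no-enzyme and DMSO controls, using Rhodamine 110 fluorescence (485/535 nm) released from 25 nM Ub-Rh110. The enzyme was Expi293F-expressed USP28-FL-His at […], preincubated 30 min with compound (10-point, 25 μM top) in Tris pH 8.0 buffer containing BGG and Triton X-100. Substrate turnover ran 45 min at room temperature and was stopped with 10 mM citric acid.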

[1] = read-out: USP28 A-1(a) IC50 range
[2] = biochemical IC50 range, read-out: USP28 A-1(a)

Structure (SMILES)	IC50 [1] [nM]	IC50 [2] [nM]
Cc1ccc2c(N)c(C(=O)N[C@H]3COc4cc(N5CCNCC5)ccc4[C@@H]3C)sc2n1 (single isomer, unassigned) [Example 11-17]	> 2000	–
Cc1ccc2c(N)c(C(=O)N[C@H]3CCc4c(F)c(N5CC6CCC(C5)N6)cc(F)c4C3)sc2n1 (single isomer, unassigned) [Example 22-5]	1 to 50	–
Cc1ccc2c(N)c(C(=O)N[C@H]3COc4cc(N5CCNCC5)ccc4[C@H]3C)sc2n1 (single isomer, unassigned) [Example 11-15]	> 2000	–
Cc1cnc2c(N)c(C(=O)N[C@@H]3CCc4c(C#N)c(N5CCNCC5)cc(F)c4C3)sc2n1 (single isomer, unassigned) [Example 14-11]	1 to 50	–
Cc1ccc2c(N)c(C(=O)N[C@H]3CCc4c(F)c(N5CC6CCC(C5)N6)cc(F)c4C3)sc2n1 (single isomer, unassigned) [Example 603]	–	1 to 50
Cc1nc2sc(C(=O)N[C@H]3CCc4c(C#N)c(N5CC6CCC(C5)N6)cc(F)c4C3)c(N)c2s1 (single isomer, unassigned) [Example 14-21]	1 to 50	–
O=C(N[C@H]1COc2cc(N3CCNCC3)ccc2C1)c1ccc(NCc2cccc(Cl)c2Cl)nc1 [Example 699, 6-{[(2,3-dichlorophenyl)methyl]amino}-N-[(3R)-7-(piperazin-1-yl)-3,4-dihydro-2H-1-benzopyran-3-yl]pyridine-3-carboxamide]	–	1 to 50
COC[C@@]1(C)CN(c2ccc3c(n2)CC[C@H](NC(=O)c2sc4nc(C)ccc4c2N)C3)C[C@H]1N [Example 343, 3-amino-N-[(6S)-2-[(3S,4S)-4-amino-3-(methoxymethyl)-3-methylpyrrolidin-1-yl]-5,6,7,8-tetrahydroquinolin-6-yl]-6-methylthieno[2,3-b]pyridine-2-carboxamide]	50 to 200	–
Cc1ccc2c(N)c(C(=O)N[C@H]3CCc4c(C#N)c(N5CCNCC5)cc(F)c4C3)sc2n1 (single isomer, unassigned) [Example 14-10]	1 to 50	–
Cc1cnc2c(N)c(C(=O)N[C@H]3CCc4cc(N5CCNCC5)cc(F)c4C3)sc2n1 (single isomer, unassigned) [Example 11-38]	50 to 200	–
CO[C@H]1CN(c2ccc3c(c2)CC[C@H](NC(=O)c2sc4nc(C)ccc4c2N)C3)C[C@H]1N [Example 144, 3-amino-N-[(2S)-6-[(3R,4S)-3-amino-4-methoxypyrrolidin-1-yl]-1,2,3,4-tetrahydronaphthalen-2-yl]-6-methylthieno[2,3-b]pyridine-2-carboxamide]	–	50 to 200
Cc1ccc2c(N)c(C(=O)N[C@H]3COc4cc(N5C[C@H](N)[C@](C)(CF)C5)ccc4C3)sc2n1 [Example 658, 3-amino-N-[(3R)-7-[(3R,4R)-4-amino-3-(fluoromethyl)-3-methylpyrrolidin-1-yl]-3,4-dihydro-2H-1-benzopyran-3-yl]-6-methylthieno[2,3-b]pyridine-2-carboxamide]	–	1 to 50
O=C(N[C@H]1COc2cc(N3CCNCC3)ccc2C1)c1ccc(NCc2ccc(Cl)cc2Cl)nc1 [Example 697, 6-{[(2,4-dichlorophenyl)methyl]amino}-N-[(3R)-7-(piperazin-1-yl)-3,4-dihydro-2H-1-benzopyran-3-yl]pyridine-3-carboxamide]	–	1 to 50
Cc1ccc2c(N)c(C(=O)N[C@H]3COc4cc(N5CCNCC5)ccc4[C@@H]3C)sc2n1 (single isomer, unassigned) [Example 11-16]	> 2000	–
Cc1cnc2c(N)c(C(=O)N[C@H]3CCc4c(C#N)c(N5CC6CCC(C5)N6)cc(F)c4C3)sc2n1 (single isomer, unassigned) [Example 14-19]	1 to 50	–
CN[C@H]1CN(c2ccc3c(n2)CC[C@H](NC(=O)c2sc4nc(C)ccc4c2N)C3)C[C@H]1CF [Example 441, 3-amino-N-[(6S)-2-[(3R,4R)-3-(fluoromethyl)-4-(methylamino)pyrrolidin-1-yl]-5,6,7,8-tetrahydroquinolin-6-yl]-6-methylthieno[2,3-b]pyridine-2-carboxamide]	50 to 200	–
CCn1ccc2cc(C(=O)N[C@H]3CCc4nc(N5C[C@@H](COC)[C@@H](N)C5)ccc4C3)cnc21 (single isomer, unassigned) [Example 400]	200 to 2000	–
Cc1ccc2c(N)c(C(=O)N[C@@H]3COc4cc(N5CCNCC5)ccc4[C@@H]3C)sc2n1 (single isomer, unassigned) [Example 11-18]	200 to 2000	–
Cc1ccc2c(N)c(C(=O)N[C@H]3COc4cc(N5C[C@@H](N)[C@](C)(CF)C5)ccc4C3)sc2n1 [Example 661, 3-amino-N-[(3R)-7-[(3R,4S)-4-amino-3-(fluoromethyl)-3-methylpyrrolidin-1-yl]-3,4-dihydro-2H-1-benzopyran-3-yl]-6-methylthieno[2,3-b]pyridine-2-carboxamide]	–	1 to 50
Cc1ccc2c(N)c(C(=O)N[C@H]3CCc4cc(N5CCNCC5)ccc4C3)sc2n1 (single isomer, unassigned) [Example 11-21]	200 to 2000	–
Cc1nc2sc(C(=O)N[C@@H]3CCc4cc(N5CCNCC5)ccc4C3)c(N)c2s1 (single isomer, unassigned) [Example 11-34]	50 to 200	–
Cc1ccc2c(N)c(C(=O)N[C@H]3COc4cc(N5C[C@H]6CC[C@@H]5CN6)ncc4C3)sc2n1 [Example 76, N-((R)-7-((1R,4R)-2,5-diazabicyclo[2.2.2]octan-2-yl)-3,4-dihydro-2H-pyrano[3,2-c]pyridin-3-yl)-3-amino-6-methylthieno[2,3-b]pyridine-2-carboxamide]	1 to 50	–
Cc1ccc2c(N)c(C(=O)N[C@H]3CCc4nc(N5C[C@H](N)[C@@]6(CCOC6)C5)ccc4C3)sc2n1 [Example 437, 3-amino-N-[(6S)-2-[(5R,9R)-9-amino-2-oxa-7-azaspiro[4.4]nonan-7-yl]-5,6,7,8-tetrahydroquinolin-6-yl]-6-methylthieno[2,3-b]pyridine-2-carboxamide]	50 to 200	–
Cc1cnc2c(N)c(C(=O)N[C@H]3CCc4c(ccc(N5CCNCC5)c4F)C3)sc2n1 (single isomer, unassigned) [Example 21-10]	> 2000	–
Cc1cnc2c(N)c(C(=O)N[C@@H]3CCc4cc(N5CCNCC5)cc(F)c4C3)sc2n1 (single isomer, unassigned) [Example 11-37]	200 to 2000	–
Cc1ccc2c(N)c(C(=O)N[C@@H]3CCc4nc(N5C[C@H](CF)[C@H](N)C5)ncc4C3)sc2n1 [Example 446, 3-amino-N-[(6R)-2-[(3S,4S)-3-amino-4-(fluoromethyl)pyrrolidin-1-yl]-5,6,7,8-tetrahydroquinazolin-6-yl]-6-methylthieno[2,3-b]pyridine-2-carboxamide]	200 to 2000	–
Cc1ccc2c(N)c(C(=O)N[C@@H]3CCc4c(C#N)c(N5CC6CCC(C5)N6)cc(F)c4C3)sc2n1 (single isomer, unassigned) [Example 14-18]	50 to 200	–
CN[C@@H]1CN(c2ccc3c(n2)CC[C@H](NC(=O)c2sc4nc(C)ccc4c2N)C3)C[C@@H]1CF [Example 442, 3-amino-N-[(6S)-2-[(3S,4S)-3-(fluoromethyl)-4-(methylamino)pyrrolidin-1-yl]-5,6,7,8-tetrahydroquinolin-6-yl]-6-methylthieno[2,3-b]pyridine-2-carboxamide]	50 to 200	–
Cc1cnc2c(N)c(C(=O)N[C@H]3CCc4cc(N5C[C@@H]6C[C@H]5CN6)ccc4C3)sc2n1 (single isomer, unassigned) [Example 11-29]	50 to 200	–
